Test [1] deals with HCV replicon (BB7 sequence) in Huh-7-Clone A cells. Briefly: HCV replicon assay: ELISA of NS5A protein in replicon-containing cells (Inhibition of Viral RNA Replication). Conditions: Hepatitis C virus, read-out: Replicon. The format is cell-based. An excerpt:
Antiviral activity of representative compounds of the invention was first evaluated in a human liver-derived cell line (Huh-7-Clone A) containing the HCV replicon (BB7 sequence) (See Lohmann et al. Science. 1999, 285:110-3; Blight K J et al., Science. 2000, 290:1972-4; Pietschmann, T. et al., J. Virol. 2001, 73:1252-1264; and Lohmann, V. et al., J. Virol. 2001, 75:1437-1449). The HCV replicon is a subgenomic viral RNA that expresses the HCV proteins required for its own replication. These proteins include non-structural proteins NS3, NS4A, NS4B, NS5A and NS5B. The replicon also contains a foreign gene encoding a drug-selectable marker (neomycin phosphotransferase) to allow for G418 (neomycin) selection of cells that contain the replicon.
An ELISA (enzyme-linked immunosorbant assay) was used to determine the effect of compounds within the scope of the invention on the amount of HCV NS5A protein produced after a 72-hour incubation of the replicon-containing cells in the presence of varying concentrations of compound. COSTAR® 96-well cell culture plates were used but other known cell culture plates may be used. After incubation, media is removed from wells and the cells are fixed to the assay plate using 0.05% glutaraldehyde. The glutaraldehyde is then washed off using phosphate-buffered saline (PBS) following a 1 hour incubation and cells are blocked for non-specific antibody binding using for example SUPERBLOCK® reagent (blocking buffer) in PBS. The blocking agent is rinsed from the cells with PBS after 1 hour at 37° C. and primary monoclonal antibody is added to each well containing compound. Primary antibody is incubated for 1 hour at 37° C. and rinsed 3 times with PBS containing 0.02% TWEEN-20™ before addition of Horseradish Peroxidase (HRP) conjugated secondary antibody. HRP is incubated for 1 hour at 37° C. and rinsed several times, first with PBS/TWEEN-20™ followed by PBS alone. To quantify peroxidase activity, 3,3′,5, 5′-tetramethylbenzidine (TMB) substrate is added to the plate and after 30 minutes, the plates are read in an ELISA plate reader at an OD of 650 nm. Compound dose response was measured in an 8-point dose curve diluted serially to determine the inhibitory concentration at 50% (EC50 value). […] Ranges of 50% effective concentrations (EC50s) for representative compounds within the scope of this invention are listed in Table 1. Preferred compounds have 50% effective concentrations at about 30 μM or less, more preferred compounds have 50% effective concentrations at about 5 μM or less, and most preferred compounds have 50% effective concentrations at about 0.5 μM or less.
Background: In antiviral work, replicon cells carry a viral genome segment that copies itself.

Test [2] has as its target T1, HCV NS5B (Hepatitis C virus genotype 1b, UniProt Q9WMX2).
T1 construct: fusion protein, of which the carboxyl terminal 21 amino acids were removed to enhance its solubility; His tag (GSHHHHHH); made in house; host or cells: E. coli
Briefly: Inhibition of viral RNA-dependent RNA polymerase (RdRp), in vitro biochemical assay. On the set-up: species or system HCV genotype 1b virus (BB7). Conditions: read-out: HCV pol-BB7 IC50. In short, it runs like this: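 Purified recombinant NS5B from a genotype 1b consensus (BB7), His-tagged, E. coli-expressed, with the C-terminal 21 residues deleted. Inhibition of RdRp activity in vitro was measured, and IC50 is the concentration giving 50% inhibition.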

The mark [3] stands for this setting: HCV replicon assay, ranges of EC50.
Where [4] appears, read: HCV NS5B RdRp, BB7, activity class.
Setting [5] is: HCV NS5B RdRp, BB7, reported as range class.
[6] abbreviates: ranges of EC50 in HCV replicon assay.
Setting [7] is: HCV NS5B RdRp, BB7, class symbols A-D.
Setting [8] is: HCV replicon assay, ranges of 50% effective concentration (EC50).
[9] abbreviates: HCV NS5B polymerase, BB7 (genotype 1b), values given as range classes A-D.
[10] abbreviates: Huh-7-Clone A, NS5A ELISA, 72-hour incubation, ranges of EC50.
The mark [11] stands for this setting: purified His-tagged NS5B (BB7), carboxyl terminal 21 amino acids removed.

pEC50, pIC50: −log10 of the molar value. Like-named read-outs stand apart in the source and are kept apart here.

Broadly, the pIC50 is the negative decadic logarithm of the IC50, by convention in mol/L. Take `CNC(=O)c1c(-c2ccc(F)cc2)oc2cc(C(C)(C)N)c(OC(C)C)cc12` [Example 376, 6-(1-Amino-1-methyl-ethyl)-2-(4-fluoro-phenyl)-5-isopropoxy-benzofuran-3-carboxylic acid methylamide]: the pEC50 in test [1] (setting [3]) is > 6.00. In test [2] (setting [4]), the pIC50 is ≥ 6.30.

Regarding `CNC(=O)c1c(-c2ccc(F)cc2)oc2cc(-c3cc(C)n[nH]3)c(OC(C)C)cc12` [Example 247, 2-(4-Fluoro-phenyl)-5-isopropoxy-6-(5-methyl-2H-pyrazol-3-yl)-benzofuran-3-carboxylic acid methylamide], the pEC50 in test [1] (HCV replicon, range of EC50) is > 5.00. The negative logarithm of the IC50 (pIC50) in test [2] (setting [5]) is 5.30 to 6.30.

In the case of `CNC(=O)c1c(-c2ccc(F)cc2)oc2cc(-c3ccoc3)c(OC(C)C)cc12` [Example 152, 2-(4-Fluoro-phenyl)-6-furan-3-yl-5-isopropoxy-benzofuran-3-carboxylic acid methylamide], the pEC50 in test [1] (setting [6]) is > 5.00. In test [2] (HCV NS5B RdRp, BB7 genotype 1b), the pIC50 was ≥ 6.30.

Turning to `CNC(=O)c1c(-c2ccc(F)cc2)oc2cc(C3CNC(=O)C3)c(OC)cc12` (centres unmarked) [Example 315, 2-(4-Fluoro-phenyl)-5-methoxy-6-(5-oxo-pyrrolidin-3-yl)-benzofuran-3-carboxylic acid methylamide], the pEC50 in test [1] (setting [3]) is > 5.00. In test [2] (setting [7]), the pIC50 is ≥ 6.30.

For the compound `CNC(=O)c1c(-c2ccc(F)cc2)oc2ccc(OCc3cscn3)cc12` [Example 435, 2-(4-Fluoro-phenyl)-5-(thiazol-4-ylmethoxy)-benzofuran-3-carboxylic acid methylamide], in test [1] (setting [8]), the pEC50 was < 4.52. In addition, the pIC50 in test [2] (setting [9]) is 5.30 to 6.30.

Regarding `CNC(=O)c1c(-c2ccc(F)cc2)oc2cc(-c3c(C)noc3C)c(OCC3CC3)cc12` [Example 428, 5-Cyclopropylmethoxy-6-(3,5-dimethyl-isoxazol-4-yl)-2-(4-fluoro-phenyl)-benzofuran-3-carboxylic acid methylamide], in test [1] (setting [8]), the pEC50 was > 6.00. Further, the pIC50 in test [2] (setting [9]) is ≥ 6.30.

On to `CNC(=O)c1c(-c2ccc(F)cc2)oc2cc(N3CCOCC3)c(OCc3c(C)noc3C)cc12` [Example 217, 5-(3,5-Dimethyl-isoxazol-4-ylmethoxy)-2-(4-fluoro-phenyl)-6-morpholin-4-yl-benzofuran-3-carboxylic acid methylamide], for which the pEC50 in test [1] (HCV replicon, range of EC50) is > 5.00. In addition, in test [2] (setting [5]), the pIC50 was 5.30 to 6.30.

Consider `CNC(=O)c1c(-c2ccc(F)cc2)oc2cc(N(Cc3ccc(C(=O)OC)cc3)S(C)(=O)=O)c(OC(C)C)cc12` [Example 270, 4-({[2-(4-Fluoro-phenyl)-5-isopropoxy-3-methylcarbamoyl-benzofuran-6-yl]-methanesulfonyl-amino}-methyl)-benzoic acid methyl ester], for which the pEC50 in test [1] (setting [3]) was > 6.00. Also, in test [2] (setting [7]), the pIC50 is ≥ 6.30.

Take `CNC(=O)c1c(-c2ccc(F)cc2)oc2cc(NCCN3CCOCC3)c(OC(C)C)cc12` [Example 100, 2-(4-Fluoro-phenyl)-5-isopropoxy-6-(2-morpholin-4-yl-ethylamino)-benzofuran-3-carboxylic acid methylamide]: the pEC50 in test [1] (setting [6]) is > 4.52. Also, in test [2] (HCV NS5B RdRp, BB7 genotype 1b), the negative-log IC50 (pIC50) is 5.30 to 6.30.

As to `CNC(=O)c1c(-c2ccc(F)cc2)oc2cc(C3CCCN3C(C)=O)c(OC)cc12` (centres unmarked) [Example 47, 6-(1-Acetyl-pyrrolidin-2-yl)-2-(4-fluoro-phenyl)-5-methoxy-benzofuran-3-carboxylic acid methylamide], the pEC50 in test [1] (setting [10]) is > 6.00. For the same compound, in test [2] (setting [11]), the pIC50 is ≥ 6.30.

Regarding `CNC(=O)c1c(-c2ccc(F)cc2)oc2cc(N(Cc3nccs3)S(C)(=O)=O)c(OC(C)C)cc12` [Example 285, 2-(4-Fluoro-phenyl)-5-isopropoxy-6-(methanesulfonyl-thiazol-2-ylmethyl-amino)-benzofuran-3-carboxylic acid methylamide], the pEC50 in test [1] (setting [3]) is > 6.00. Besides, in test [2] (setting [7]), the pIC50 is ≥ 6.30.

Turning to `CNC(=O)c1c(-c2ccc(F)cc2)oc2cc(Cl)c(OC)cc12` [Example 126, 6-Chloro-2-(4-fluoro-phenyl)-5-methoxy-benzofuran-3-carboxylic acid methylamide], the pEC50 in test [1] (setting [6]) was > 6.00. Also, in test [2] (HCV NS5B RdRp, BB7 genotype 1b), the pIC50 was ≥ 6.30.

Regarding `CCNc1cc2oc(-c3ccc(F)cc3)c(C(=O)NC)c2c(Cl)c1O` [Example 341, 4-Chloro-6-ethylamino-2-(4-fluoro-phenyl)-5-hydroxy-benzofuran-3-carboxylic acid methylamide], in test [1] (setting [3]), the pEC50 was < 4.00. In test [2] (setting [4]), the pIC50 was 5.30 to 6.30.

With `CCN(c1cc2oc(-c3ccc(F)cc3)c(C(=O)NC)c2cc1OC(C)C)S(C)(=O)=O` [Example 255, 6-(Ethyl-methanesulfonyl-amino)-2-(4-fluoro-phenyl)-5-isopropoxy-benzofuran-3-carboxylic acid methylamide], the pEC50 in test [1] (setting [3]) was > 6.00. Besides, the pIC50 in test [2] (setting [7]) is ≥ 6.30.

With `CCc1cc2c(C(=O)NC)c(-c3ccc(F)cc3)oc2cc1N(CCOC)S(C)(=O)=O` [Example 335, 5-Ethyl-2-(4-fluoro-phenyl)-6-[methanesulfonyl-(2-methoxy-ethyl)-amino]-benzofuran-3-carboxylic acid methylamide], the pEC50 in test [1] (setting [3]) was > 6.00. Also, the pIC50 in test [2] (setting [4]) is ≥ 6.30.

As for `CNC(=O)c1c(-c2ccc(F)cc2)oc2cc(C(O)C(C)C)c(OC(C)C)cc12` (centres unmarked) [Example 238, 2-(4-Fluoro-phenyl)-6-(1-hydroxy-2-methyl-propyl)-5-isopropoxy-benzofuran-3-carboxylic acid methylamide], in test [1] (HCV replicon, range of EC50), the pEC50 was > 6.00. Further, the pIC50 in test [2] (setting [5]) was ≥ 6.30.

For `CNC(=O)c1c(-c2ccc(F)cc2)oc2cc(C#N)c(OC)cc12` [Example 266, 6-Cyano-2-(4-fluoro-phenyl)-5-methoxy-benzofuran-3-carboxylic acid methylamide], the pEC50 in test [1] (setting [3]) was > 6.00. Besides, the pIC50 in test [2] (setting [7]) is ≥ 6.30.

On to `CNC(=O)c1c(-c2ccccc2)oc2ccc(CO)cc12` [Example 118, 5-Hydroxymethyl-2-phenyl-benzofuran-3-carboxylic acid methylamide], for which the pEC50 in test [1] (setting [6]) is < 4.00. Further, the pIC50 in test [2] (HCV NS5B RdRp, BB7 genotype 1b) is 4.52 to 5.30.

With `CNC(=O)c1c(-c2ccc(F)cc2)oc2cc(-c3ncon3)c(OC(C)C)cc12` [Example 205, 2-(4-Fluoro-phenyl)-5-isopropoxy-6-[1,2,4]oxadiazol-3-yl-benzofuran-3-carboxylic acid methylamide], in test [1] (HCV replicon, range of EC50), the pEC50 is > 6.00. Also, the negative-log IC50 (pIC50) in test [2] (setting [5]) is ≥ 6.30.

Turning to `CNC(=O)c1c(-c2ccc(F)cc2)oc2cc(N(C)S(C)(=O)=O)c(OCc3cccc(C(=O)O)c3)cc12` [Example 312, 3-[2-(4-Fluoro-phenyl)-6-(methanesulfonyl-methyl-amino)-3-methylcarbamoyl-benzofuran-5-yloxymethyl]-benzoic acid], the pEC50 in test [1] (setting [3]) is > 6.00. Also, the pIC50 in test [2] (setting [7]) is ≥ 6.30.

As to `CNC(=O)c1c(-c2ccc(F)cc2)oc2cc(N(Cc3nsc(Cl)n3)S(C)(=O)=O)c(OC(C)C)cc12` [Example 234, 6-[(5-Chloro-[1,2,4]thiadiazol-3-ylmethyl)-methanesulfonyl-amino]-2-(4-fluoro-phenyl)-5-isopropoxy-benzofuran-3-carboxylic acid methylamide], the pEC50 in test [1] (HCV replicon, range of EC50) is > 5.00. Besides, the pIC50 in test [2] (setting [5]) was ≥ 6.30.

`CNC(=O)c1c(-c2ccc(F)cc2)oc2ccc(F)cc12` [Example 82, 5-Fluoro-2-(4-fluoro-phenyl)-benzofuran-3-carboxylic acid methylamide]: the pEC50 in test [1] (setting [10]) is > 4.52. For the same compound, the pIC50 in test [2] (setting [11]) was 5.30 to 6.30.

Source of the values: US7265152B2 (ViroPharma Incorporated, priority 2002, dated 2007).
